From PubChem BioAssay (NCI)
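The compound was tested at five concentrations on cells cultured in 96-well plates, with a 48-hour exposure period. The concentration for 50% growth inhibition is given as GI50. The concentration for full growth arrest is given as TGI.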

Tests used:
Test in all cases: NCI anticancer screen, dose series, 48 h
SR leukemia = system: SR leukemia
A549 NSCLC = system: A549 NSCLC
RPMI-8226 leukemia = system: RPMI-8226 leukemia
SNB-75 CNS = system: SNB-75 CNS
SK-MEL-28 melanoma = system: SK-MEL-28 melanoma
U251 CNS = system: U251 CNS
SNB-19 CNS = system: SNB-19 CNS
PC-3 prostate = system: PC-3 prostate
T-47D breast = system: T-47D breast
HS 578T breast = system: HS 578T breast

Compound	TGI (SR leukemia) [µM]	TGI (A549 NSCLC) [µM]	TGI (RPMI-8226 leukemia) [µM]	TGI (SNB-75 CNS) [µM]	TGI (SK-MEL-28 melanoma) [µM]	TGI (U251 CNS) [µM]	TGI (SNB-19 CNS) [µM]	GI50 (SR leukemia) [µM]	GI50 (A549 NSCLC) [µM]	GI50 (PC-3 prostate) [µM]	TGI (PC-3 prostate) [µM]	GI50 (RPMI-8226 leukemia) [µM]	GI50 (T-47D breast) [µM]	TGI (T-47D breast) [µM]	GI50 (U251 CNS) [µM]	GI50 (SNB-19 CNS) [µM]	GI50 (HS 578T breast) [µM]	TGI (HS 578T breast) [µM]	GI50 (SK-MEL-28 melanoma) [µM]
COC(=O)C(C(=O)c1ccccc1)C(C(=O)C(=O)Nc1ccc(OC)cc1OC)C(=O)C(=O)c1ccc(C)cc1 (configuration not stated)	> 100	> 100	> 100	> 100	> 100	> 100	> 100	–	–	–	–	–	–	–	–	–	–	–	–
c1ccc2cc(-c3cc4ccccc4s3)ccc2c1	> 100	> 100	> 100	93.7	> 100	> 100	> 100	–	–	–	–	–	–	–	–	–	–	–	–
CC(C)CCC1CC2C(=O)N(c3ccccc3)C(=O)C2c2[nH]c3ccccc3c21 (configuration not stated)	23.9	17.7	11.8	9.25	20	3.5	20.6	–	–	–	–	–	–	–	–	–	–	–	–
CC1=C(C(=O)Nc2ccc(F)c(Cl)c2)C(c2ccccc2O)NC(=S)N1 (configuration not stated)	> 50	> 50	> 50	–	–	> 50	> 50	34.8	19.6	40.6	> 50	21.6	> 50	> 50	30.2	> 50	35	> 50	–
O=[N+]([O-])c1cccc(C2=NN(c3ccccc3)C[N+](c3ccc(Br)cc3)=N2)c1	16.9	> 100	> 100	> 100	> 100	> 100	> 100	–	–	–	–	–	–	–	–	–	–	–	–
O=C(Nc1ccn(CCO)c(=O)n1)c1ccccc1	> 100	> 100	> 100	> 100	> 100	> 100	–	–	–	–	–	–	–	–	–	–	–	–	–
CCCCCCCCCCCCCC(=O)OCC(C[As](=O)(O)O)OC(=O)CCCCCCCCCCCCC (configuration not stated)	> 100	> 100	> 100	> 100	> 100	> 100	> 100	–	–	–	–	–	–	–	–	–	–	–	–
Cc1c2n(c(=O)[nH]c1=O)C1OC(CO)C(O2)C1O (configuration not stated)	> 100	> 100	> 100	> 100	> 100	> 100	> 100	–	–	–	–	–	–	–	–	–	–	–	–
N#CN/C(N)=N/CO	72.4	> 100	> 76.2	> 100	> 100	> 90.2	> 100	–	–	–	–	–	–	–	–	–	–	–	–
O=c1/c(=C/c2ccccc2[N+](=O)[O-])sc2nnc(-c3ccco3)n12	70.9	60.3	–	84.7	57	36.6	56.3	–	–	–	–	–	–	–	–	–	–	–	–
CCOC(=O)c1cnc2c(ccc3[nH]n(C)nc32)c1=O	> 100	> 100	67.5	> 100	> 100	68.9	> 100	–	–	–	–	–	–	–	–	–	–	–	–
CC(=O)CCn1c(=S)sc2ccccc21	–	> 100	–	> 100	> 100	> 100	> 100	–	–	–	> 100	–	–	–	–	–	–	> 100	–
CC(=O)OC1COC(Oc2c(C)c3c4c(c2O)[C@@H](C)CC[C@@H]4[C@@H](C)C[C@H]3C=C(C)C)C(O)C1OC(C)=O (some centres not stated)	–	32.8	69.8	–	56.2	22.5	40.1	–	16	11.3	25.2	9.02	20.1	56.4	10.4	16	46.8	> 100	25.4
